This assay relates to primary human vascular smooth muscle cells. The assay can be described thus: Inhibition of cell proliferation, CyQUANT NF Cell Proliferation Assay. Type of assay: cell-based. To be noted: drug in solution, FIG. 11A, read-out: IC50, dose required to achieve 50% inhibition of cell proliferation.

Values after ≈ are worked out from the molar mass of the structure shown.

Description: Cell viability was determined using CyQUANT™ NF Cell Proliferation Assay kit (Cat #C35006, ThermoFisher Scientific). Fluorescent readings were taken by a microplate reader (Cytation 5, BioTek Instruments Inc., Vermont). […] A) Dose-response effect following treatment of cells with Paclitaxel (PTX) or Sirolimus (SRL) in solution. From the dose-response study, IC50 for each drug was determined. IC50 is the dose that is required to achieve 50% inhibition of cell proliferation with respect to untreated cell.
Determination of Synergistic Effect of Combination Paclitaxel and Sirolimus: The synergistic effect of the combination treatment was determined in vitro using human vascular smooth muscle cells. The IC50 i.e., the drug amount required to inhibit cell proliferation by 50% with respect to the untreated cells was determined using cell viability assay. Drug combination index (CI) was used to determine if the combination treatment is synergistic (CI=<1), additive (CI=1) or antagonistic (CI>1).
Method: Primary human vascular smooth muscle cells (VSMCs) were incubated with different doses of the encapsulated drug(s) for six days. Cell viability was determined using CyQUANT™ NF Cell Proliferation Assay kit (Cat #C35006, ThermoFisher Scientific). Fluorescent readings were taken by a microplate reader (Cytation 5, BioTek Instruments Inc., Vermont).

As to `CC(=O)O[C@H]1C(=O)[C@@]2(C)[C@H]([C@H](OC(=O)c3ccccc3)[C@]3(O)C[C@H](OC(=O)[C@H](O)[C@@H](NC(=O)c4ccccc4)c4ccccc4)C(C)=C1C3(C)C)[C@]1(OC(C)=O)CO[C@@H]1C[C@@H]2O` [PTX, Paclitaxel], the IC50 stood at 1.16 µg/mL (≈ 1.35 µM).
Take `CO[C@H]1C[C@@H]2CC[C@@H](C)[C@@](O)(O2)C(=O)C(=O)N2CCCC[C@H]2C(=O)O[C@H]([C@H](C)C[C@@H]2CC[C@@H](O)[C@H](OC)C2)CC(=O)[C@H](C)/C=C(\C)[C@@H](O)[C@@H](OC)C(=O)[C@H](C)C[C@H](C)/C=C/C=C/C=C/1C` [SRL, Sirolimus]: the IC50 turned out to be 29.1 µg/mL (≈ 31.8 µM).

The record behind these values is patent publication US20220193310A1, “DUAL AGENT NANOPARTICLE COMPOSITION FOR COATING MEDICAL DEVICES” (THE CLEVELAND CLINIC FOUNDATION, priority 2020, published 2022).
